± gives the expanded uncertainty stated by the source.
Key:
[1] = Molar enthalpy of transition or fusion; conditions: DSC
[2] = DTA; for Normal melting temperature: Crystal 1

| SMILES | Molar enthalpy of transition or fusion ([1]; Crystal 1) [kcal/mol] | Molar enthalpy of transition or fusion ([1]; Crystal 3) [kcal/mol] | Normal melting temperature [2] [°C] | Triple point temperature ([2]; Crystal 2) [K] | Triple point temperature ([2]; Crystal 3) [K] | Triple point temperature ([2]; Crystal 4) [K] | Molar enthalpy of transition or fusion ([1]; Crystal) [kcal/mol] |
| --- | --- | --- | --- | --- | --- | --- | --- |
| Oc1c(Cl)c(Cl)c(Cl)c(Cl)c1Cl [pentachlorophenol] | 3.68 ± 0.122 | 2.15 ± 0.0837 | 191.7 ± 0.5 | 441.6 ± 0.5 | 340.2 ± 0.5 | 287.4 ± 0.5 | – |
| Clc1c(Cl)c(Cl)c(Cl)c(Cl)c1Cl [hexachlorobenzene] | – | – | 231 ± 0.5 | – | – | – | 5.72 ± 0.17 |
